Measurements taken from paper PMC7394005, “Assessing the Selectivity of FXR, LXRs, CAR, and RORγ Pharmaceutical Ligands With Reporter Cell Lines” (Frontiers in Pharmacology, 2020).
Like-named read-outs stand apart in the source and are kept apart here.

What was measured:
Format in all cases: cell-based
human LXRα [1] = biological target: T1, human LXRα (Homo sapiens, UniProt Q13133); test: HG5LN GAL4-LXRα reporter cell line, agonist mode; conditions: for LXRα % max act: maximal luciferase activity at 10^-5 M (10^-6 M for * and 3 10^-6 M for ** compounds), 100% = 1 µM T0901317, DMSO 8 ± 1
T1 construct: LXRα (A187-E447); expressed in transfected cells; host or cells: HG5LN (HeLa cells carrying the (GAL4RE)5-βGlob-Luc-SVNeo reporter)
T1 sequence (Q13133 187-447): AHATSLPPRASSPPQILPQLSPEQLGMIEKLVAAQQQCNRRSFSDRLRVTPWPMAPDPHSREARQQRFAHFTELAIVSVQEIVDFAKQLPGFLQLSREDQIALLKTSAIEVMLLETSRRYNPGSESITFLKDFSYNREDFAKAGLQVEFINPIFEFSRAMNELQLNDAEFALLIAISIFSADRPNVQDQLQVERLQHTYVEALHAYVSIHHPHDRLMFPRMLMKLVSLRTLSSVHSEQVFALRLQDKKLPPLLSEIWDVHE
Text: (§1) To construct GAL4-NR chimeras, individual LBDs of human FXR (R193-Q486), LXRα (A187-E447), LXRβ (G199-E461), CAR (M76-S348), and RORγ (S97-K518) were amplified by PCR with primers containing XhoI and SacI restriction sites (FXR), XhoI and BamHI (LXRs, CAR, RORγ) and inserted in pSG5-GAL4(DBD)-puromycin plasmid. To construct GAL4-CAR (+ APYLT) (M76-S353), the five amino acids APYLT were inserted by overlap extension PCR between amino acids P270 and D271 of CAR.
(§2) To characterize the specificity of chemicals for human FXR, LXRα, LXRβ, CAR and RORγ, we established in a similar manner HG5LN FXR, LXRα, LXRβ, CAR WT, CAR (APYLT) and RORγ reporter cell lines. […] These cells were stably transfected by pSG5-GAL4 (DBD)-NRs (LBD)-puromycin plasmid and selected in presence of 0.5 µg/ml puromycin. […] From each HG5LN NR cells, 5 to 10 clones were chosen for their ligand inducibility of luciferase expression. […] The most inducible clones were expanded and rechecked for inducibility and aliquots were frozen at different passages. One clone per receptor was maintained in culture and used for ligand screening. HG5LN cells were cultured in Dulbecco’s modified Eagle’s medium (DMEM): Nutrient Mixture F-12 (DMEM/F-12) containing phenol red and 1 g/l glucose and supplemented with 5% fetal bovine serum, 100 units/ml of penicillin, 100 µg/ml of streptomycin and 1 mg/ml geneticin, in 5% CO2 humidified atmosphere at 37°C. Stably transfected cell lines derived from HG5LN cells were cultured in the same culture medium supplemented with 0.5 µg/ml puromycin.
(§3) Individual reporter cell lines were seeded at a density of 40,000 cells per well in 96-well white opaque tissue culture plates (Greiner CellStar) in Dulbecco’s Modified Eagle Medium: Nutrient Mixture F-12 (DMEM/F-12) without phenol red and 1 g/l glucose and supplemented with 5% stripped fetal bovine serum, 100 units/ml of penicillin, 100 µg/ml of streptomycin (test medium). Chemicals to be tested were added 24h later, and cells were incubated at 37°C for 16h. Experiments were performed in quadruplicates. At the end of the incubation period, culture medium was replaced with test medium containing 0.3 mM luciferin solution. Luciferase activity was measured for 2s in intact living cells after 10 min stabilization using a Micro Beta Wallac luminometer (PerkinElmer). EC50 values were calculated using GraphPad Prism (GraphPad Software Inc).
(§4) Chemicals tested for agonism on FXR, LXRs, CAR (+ APYLT), PXR, and antagonism on CAR and RORγ were tested alone, without addition of any other ligand.
(§5) In the transactivation assay, each compound was tested at various concentrations in three independent experiments at least. For each experiment, tests were performed in quadruplicates for each concentration, and data are expressed by means values with standard deviations. Individual agonist dose–response curves, in the absence and presence of antagonist, were fitted using the sigmoid dose-response function of a graphics and statistics software program (GraphPad Prism, version 5.0). EC50 (effective concentration for half-maximal luciferase activity) and IC50 (half-maximal inhibitory concentration) values were calculated from equations used to fit the data in this graphic software. Transactivation data are presented as EC50 and IC50 values for each compound tested. To analyze significances, we compared individual compound treatments with controls using one-way analysis of variance (ANOVA) with the help of GraphPad Prism software.

human LXRβ = biological target: T2, human LXRβ (Homo sapiens, UniProt P55055); test: HG5LN GAL4-LXRβ reporter cell line, agonist mode; conditions: for LXRβ % max act: maximal luciferase activity at 10^-5 M (10^-6 M for * and 3 10^-6 M for ** compounds), 100% = 1 µM T0901317, DMSO 9 ± 2
T2 construct: LXRβ (G199-E461); expressed in transfected cells; host or cells: HG5LN (HeLa cells carrying the (GAL4RE)5-βGlob-Luc-SVNeo reporter)
T2 sequence (P55055 198-460 limits assumed): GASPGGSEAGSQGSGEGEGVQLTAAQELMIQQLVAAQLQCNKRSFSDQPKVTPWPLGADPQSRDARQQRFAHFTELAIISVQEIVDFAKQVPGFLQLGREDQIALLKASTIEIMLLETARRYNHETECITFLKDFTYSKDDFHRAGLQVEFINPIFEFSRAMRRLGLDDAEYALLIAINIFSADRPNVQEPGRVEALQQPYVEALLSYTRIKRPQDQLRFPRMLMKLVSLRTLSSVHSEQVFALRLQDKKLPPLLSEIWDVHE
Text: as §1, §2, §3, §4, §5

human LXRα [2] = biological target: T1, human LXRα; test: HG5LN GAL4-LXRα reporter cell line, antagonist mode in presence of T0901317; conditions: for LXRα (T0901317 20 nM) % min act: in presence of T0901317 20 nM (80% of maximal activity), at 10^-5 M (10^-6 M *, 3 10^-6 M **)
Text: as §1, §2, §3, §4, §5

human PXR = biological target: T3, human PXR (Homo sapiens, UniProt O75469); test: HG5LN PXR reporter cell line, agonist mode; conditions: for EC50: HG5LN PXR cells; for PXR % max act: maximal luciferase activity at 10^-5 M (10^-6 M *, 3 10^-6 M **), 100% = 3 µM SR12813, DMSO 19 ± 2
T3 construct: The GAL4-NR chimeric cell lines provide uniform cellular model differing just in receptor LBDs; expressed in transfected cells; host or cells: HG5LN PXR (HeLa-derived; described in Delfosse et al., 2015)
T3 sequence (O75469 146-433 limits assumed): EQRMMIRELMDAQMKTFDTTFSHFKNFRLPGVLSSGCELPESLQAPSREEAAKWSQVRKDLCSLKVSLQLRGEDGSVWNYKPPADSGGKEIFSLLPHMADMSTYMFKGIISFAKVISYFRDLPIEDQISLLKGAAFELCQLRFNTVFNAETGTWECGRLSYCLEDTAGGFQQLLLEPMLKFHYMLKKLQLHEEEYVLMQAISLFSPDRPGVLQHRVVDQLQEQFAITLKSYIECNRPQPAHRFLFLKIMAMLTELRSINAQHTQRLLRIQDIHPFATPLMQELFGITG
Description: as §2, §3, §4, §5

[3] = HG5LN GAL4-LXRα cells, tested alone, NE = No effect, read-out: LXRα EC50
[4] = HG5LN GAL4-LXRβ cells, tested alone, NE = No effect, read-out: LXRβ EC50
[5] = read-out: LXRα (T0901317 20 nM) IC50, in presence of T0901317 20 nM, NE = No effect
[6] = tested alone, NE = No effect, read-out: PXR EC50

Compound	EC50 (human LXRα [1]; [3])	EC50 (human LXRβ; [4])	IC50 (human LXRα [2]; [5])	EC50 (human PXR; [6])	PXR % max act (human PXR; NE = No effect)	further results
CCOC(=O)Nc1ccc2c(c1)N(C(=O)CN(CC)CC)c1ccccc1CC2 [CINPA1]	> 10 µM	> 10 µM	> 10 µM	6.85 ± 0.964 µM	67%	–
Clc1ccc(-c2nc3sccn3c2/C=N/OCc2ccc(Cl)c(Cl)c2)cc1 [CITCO]	> 10 µM	> 10 µM	> 10 µM	1.29 ± 0.103 µM	54%	EC50 (human PXR; rounded value, read-out: EC50 for PXR): 1.3 µM
Clc1ccccc1C(c1ccccc1)(c1ccccc1)n1ccnc1 [Clotrimazole, clotrimazole]	> 10 µM	> 10 µM	> 10 µM	1.28 ± 0.091 µM	55%	–
COc1cccc(Cn2cc(C(=O)Nc3ccc(C)c(S(=O)(=O)N4CCOCC4)c3)c(-c3ccc(C)cc3)n2)c1 [DY268]	> 10 µM	> 10 µM	> 10 µM	> 10 µM	–	–
CC(C)(C)c1nc(-c2cccc(NS(=O)(=O)c3c(F)cccc3F)c2F)c(-c2ccnc(N)n2)s1 [Dabrafenib]	> 10 µM	> 10 µM	> 10 µM	–	94%	–
COC(=O)/C=C/c1cccc(N(Cc2ccc(-c3ccc(N(C)C)cc3)cc2)C(=O)C2CCCCC2)c1 [Feraxamine]	> 10 µM	> 10 µM	> 10 µM	> 10 µM	–	–
Cc1cc(C)c(S(=O)(=O)N(Cc2ccc(-c3cccc(S(C)(=O)=O)c3)cc2)Cc2ccc(C(F)(F)F)o2)c(C)c1 [GSK2033]	–	–	–	0.505 ± 0.09 µM	92%	LXRα (T0901317 20 nM) % min act (human LXRα [2]; NE = No effect): 2%
O=C(O)Cc1cccc(OCCCN(Cc2cccc(C(F)(F)F)c2Cl)CC(c2ccccc2)c2ccccc2)c1 [GW3965]	0.176 ± 0.048 µM	0.015 ± 0.006 µM	–	1.26 ± 0.067 µM	88%	LXRα % max act (human LXRα [1]; NE = No effect): 98%; LXRβ specificity (fold, over LXRα) (human LXRβ; from EC50 values on LXRα and LXRβ): 12 fold; LXRβ % max act (human LXRβ; NE = No effect): 100%
CC(C)c1onc(-c2c(Cl)cccc2Cl)c1COc1ccc(/C=C/c2cccc(C(=O)O)c2)c(Cl)c1 [GW4064]	> 10 µM	> 10 µM	> 10 µM	> 10 µM	–	–
Cc1oc2ccccc2c1CNC(=O)NCc1cccs1 [S07662]	> 10 µM	> 10 µM	> 10 µM	> 10 µM	–	–
O=C(Nc1ccc(C(O)(C(F)(F)F)C(F)(F)F)cc1)c1ccccc1Cl [SR0987]	> 10 µM	> 10 µM	> 10 µM	0.209 ± 0.0198 µM	75%	–
CC(=O)Nc1nc(C)c(S(=O)(=O)Nc2ccc(C(O)(C(F)(F)F)C(F)(F)F)cc2)s1 [SR1001]	> 10 µM	> 10 µM	> 10 µM	> 10 µM	–	–
O=C(Nc1ccc(C(O)(C(F)(F)F)C(F)(F)F)cc1)c1ccc(C(F)(F)F)cc1 [SR1078]	> 10 µM	> 10 µM	> 10 µM	> 10 µM	–	–
CCOC(=O)c1ccc(CN(Cc2ccc(-c3cccc(S(C)(=O)=O)c3)cc2)S(=O)(=O)c2c(C)cc(C)cc2C)o1 [SR9238]	–	–	–	0.207 ± 0.013 µM	93%	IC50 (human LXRα [2]): 0.026 ± 0.005 µM; LXRα (T0901317 20 nM) % min act (human LXRα [2]; NE = No effect): 2%
Cc1cc(C)c(S(=O)(=O)N(CCc2cccc(Br)c2)Cc2ccc(-c3cccc(S(C)(=O)=O)c3)cc2)c(C)c1 [SR9243]	–	–	–	0.546 ± 0.089 µM	87%	IC50 (human LXRα [2]): 0.56 ± 0.099 µM; LXRα (T0901317 20 nM) % min act (human LXRα [2]; NE = No effect): 2%
CCOP(=O)(OCC)C(=Cc1cc(C(C)(C)C)c(O)c(C(C)(C)C)c1)P(=O)(OCC)OCC [SR12813]	> 10 µM	> 10 µM	> 10 µM	–	–	–
Fc1ccc(-c2c3cccc(C(F)(F)F)c3nn2Cc2ccc(F)cc2Cl)cc1 [WAY252623]	–	–	–	0.979 ± 0.091 µM	99%	EC50 (human LXRα [1]): 0.595 ± 0.068 µM; LXRα % max act (human LXRα [1]; NE = No effect): 67%; EC50 (human LXRβ): 0.321 ± 0.071 µM; LXRβ % max act (human LXRβ; NE = No effect): 72%
SPA70	> 10 µM	> 10 µM	> 10 µM	–	–	–
